Usually IC50 stands for the point on the concentration scale where inhibition reaches its midpoint. Low readings indicate greater potency in that assay, high ones weaker potency in that assay. What is called Ki is a dissociation constant, usually derived from enzyme kinetics or from competition with a known ligand. Read a high Ki as lower affinity. In general, inhibition refers to the relative decrease from the control value, in per cent.

Consider 32 compounds from ChEMBL document CHEMBL3797053, “2-Alkoxy-3-(sulfonylarylaminomethylene)-chroman-4-ones as potent and selective inhibitors of ectonucleotidases” (Eur J Med Chem, 2016).

For test [1], the target named is T1, 5'-nucleotidase (Rattus norvegicus, UniProt P21588).
T1 sequence (P21588 whole entry): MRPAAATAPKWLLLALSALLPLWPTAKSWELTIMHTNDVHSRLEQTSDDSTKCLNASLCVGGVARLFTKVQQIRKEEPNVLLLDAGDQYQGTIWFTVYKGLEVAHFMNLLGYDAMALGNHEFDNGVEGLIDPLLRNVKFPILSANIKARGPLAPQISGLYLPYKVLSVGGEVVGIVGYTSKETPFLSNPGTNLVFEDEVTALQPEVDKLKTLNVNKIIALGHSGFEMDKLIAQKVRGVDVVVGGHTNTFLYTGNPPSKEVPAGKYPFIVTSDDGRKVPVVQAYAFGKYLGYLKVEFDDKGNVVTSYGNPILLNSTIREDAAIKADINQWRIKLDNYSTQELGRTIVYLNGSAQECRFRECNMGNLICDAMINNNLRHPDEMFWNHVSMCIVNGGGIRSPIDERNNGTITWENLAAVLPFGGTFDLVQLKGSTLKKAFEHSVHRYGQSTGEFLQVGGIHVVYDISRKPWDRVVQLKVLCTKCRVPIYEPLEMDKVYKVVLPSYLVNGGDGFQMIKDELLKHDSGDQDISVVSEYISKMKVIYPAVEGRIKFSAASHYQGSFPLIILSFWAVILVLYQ
Nature of the test: Inhibition of rat Ecto-5'-nucleotidase transfected in COS7 cells preincubated for 10 mins followed by AMP addition measured after 10 mins. The test is classed as cell-based, COS-7.

Test [2] concerns the target T2, 5'-nucleotidase (Rattus norvegicus) (UniProt P21588).
T2 sequence (whole entry): T1 sequence (P21588 whole entry)
Briefly: Inhibition of rat Ecto-5'-nucleotidase transfected in COS7 cells at 1 mM preincubated for 10 mins followed by AMP addition measured after 10 mins. In kind it is cell-based. To be noted: COS-7.

The target in test [3] is Intestinal-type alkaline phosphatase (Bos taurus, UniProt P19111). Briefly: Inhibition of calf intestinal alkaline phosphatase preincubated for 3 to 5 mins followed by CDP-star substrate addition measured after 15 mins by luminescence assay.
Sequence of Intestinal-type alkaline phosphatase (P19111 whole entry): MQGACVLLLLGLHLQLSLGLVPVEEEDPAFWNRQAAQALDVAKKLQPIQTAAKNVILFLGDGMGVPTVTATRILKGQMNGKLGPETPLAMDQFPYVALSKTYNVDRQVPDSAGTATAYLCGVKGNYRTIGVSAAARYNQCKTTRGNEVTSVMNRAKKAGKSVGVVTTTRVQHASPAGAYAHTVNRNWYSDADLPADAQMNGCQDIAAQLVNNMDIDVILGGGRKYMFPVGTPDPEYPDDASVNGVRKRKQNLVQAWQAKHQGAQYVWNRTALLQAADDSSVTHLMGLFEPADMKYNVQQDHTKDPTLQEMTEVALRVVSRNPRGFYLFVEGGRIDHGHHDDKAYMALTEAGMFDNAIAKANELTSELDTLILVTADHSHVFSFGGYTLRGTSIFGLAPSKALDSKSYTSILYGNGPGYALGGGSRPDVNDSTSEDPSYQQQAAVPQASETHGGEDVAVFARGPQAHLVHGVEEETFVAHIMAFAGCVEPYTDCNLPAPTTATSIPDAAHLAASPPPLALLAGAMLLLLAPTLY
Test [4] has as its target T3, Alkaline phosphatase, tissue-nonspecific isozyme (Bos taurus, UniProt P09487).
T3 sequence (P09487 whole entry): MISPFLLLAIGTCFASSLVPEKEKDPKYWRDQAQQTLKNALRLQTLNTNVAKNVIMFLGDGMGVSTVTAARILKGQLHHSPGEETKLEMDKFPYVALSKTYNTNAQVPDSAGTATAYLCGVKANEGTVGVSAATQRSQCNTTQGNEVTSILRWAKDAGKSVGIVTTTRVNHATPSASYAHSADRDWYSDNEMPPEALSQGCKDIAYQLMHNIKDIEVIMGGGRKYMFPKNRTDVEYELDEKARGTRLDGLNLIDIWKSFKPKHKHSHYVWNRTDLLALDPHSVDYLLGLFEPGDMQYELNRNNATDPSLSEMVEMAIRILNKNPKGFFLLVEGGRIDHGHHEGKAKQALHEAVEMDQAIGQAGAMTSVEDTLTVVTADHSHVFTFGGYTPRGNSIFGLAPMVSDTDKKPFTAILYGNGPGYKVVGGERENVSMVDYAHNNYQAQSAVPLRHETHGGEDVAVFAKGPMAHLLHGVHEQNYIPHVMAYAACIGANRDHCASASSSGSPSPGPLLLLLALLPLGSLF
Briefly: Inhibition of bovine tissue non-specific alkaline phosphatase preincubated for 3 to 5 mins followed by CDP-star substrate addition measured after 15 mins by luminescence assay.

The target in test [5] is T4, 5'-nucleotidase (Homo sapiens, UniProt P21589). Nature of the test: Inhibition of human Ecto-5'-nucleotidase transfected in COS7 cells at 1 mM preincubated for 10 mins followed by AMP addition measured after 10 mins. In kind it is cell-based. The following applies: COS-7.
T4 sequence (P21589 whole entry): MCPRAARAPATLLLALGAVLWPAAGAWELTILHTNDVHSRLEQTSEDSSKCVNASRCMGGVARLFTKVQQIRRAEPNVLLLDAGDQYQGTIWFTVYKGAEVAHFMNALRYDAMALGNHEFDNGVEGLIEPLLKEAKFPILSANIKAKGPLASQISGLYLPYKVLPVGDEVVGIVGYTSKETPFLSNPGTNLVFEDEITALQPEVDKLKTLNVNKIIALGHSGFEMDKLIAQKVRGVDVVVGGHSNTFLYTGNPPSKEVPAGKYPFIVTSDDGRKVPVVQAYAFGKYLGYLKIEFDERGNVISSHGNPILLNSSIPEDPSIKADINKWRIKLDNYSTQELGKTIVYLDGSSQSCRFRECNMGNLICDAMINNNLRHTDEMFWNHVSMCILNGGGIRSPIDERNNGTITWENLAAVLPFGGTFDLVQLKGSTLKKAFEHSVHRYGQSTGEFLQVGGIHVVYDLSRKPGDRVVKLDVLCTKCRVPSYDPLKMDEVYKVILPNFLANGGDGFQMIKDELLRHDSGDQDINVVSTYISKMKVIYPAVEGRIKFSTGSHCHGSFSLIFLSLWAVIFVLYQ
Test [6] has as its target T4, 5'-nucleotidase. Nature of the test: Inhibition of human Ecto-5'-nucleotidase transfected in COS7 cells preincubated for 10 mins followed by AMP addition measured after 10 mins. The test is classed as cell-based, COS-7.
In test [7] the target is T5, Alkaline phosphatase, tissue-nonspecific isozyme (Bos taurus) (UniProt P09487).
T5 sequence (whole entry): T3 sequence (P09487 whole entry)
Briefly: Inhibition of bovine tissue non-specific alkaline phosphatase at 0.2 mM preincubated for 3 to 5 mins followed by CDP-star substrate addition measured after 15 mins by luminescence assay.

Regarding `CCOC1Oc2ccccc2C(=O)/C1=C\Nc1ccc(S(=O)(=O)Nc2ccc(OC)nn2)cc1` (racemic), in test [1], the concentration for half-maximal inhibition (IC50) was found to be 1090 nM and the Ki turned out to be 51.7 nM.
`CCOC1Oc2ccccc2C(=O)/C1=C\Nc1ccc(S(N)(=O)=O)cc1` (racemic): the inhibition in test [2] was determined as 39.5%.
In the case of `COC1Oc2ccc(F)cc2C(=O)/C1=C\Nc1cccc(S(N)(=O)=O)c1` (racemic), the IC50 in test [3] turned out to be 13500 nM; in test [4] it was 1460 nM. The values for the Ki in test [3] and in test [4] were 5660 nM and 623 nM, respectively. Moreover, the inhibition in test [5] was determined as 44.4%; in test [2], 46%.
Consider `CCOC1Oc2ccc(CC)cc2C(=O)/C1=C\Nc1ccccc1S(N)(=O)=O` (racemic), for which, in test [1], it took 101 nM to reach half-maximal inhibition (IC50) and the Ki was determined as 4.7 nM.
Turning to `COC1Oc2c(Cl)cc(Cl)cc2C(=O)/C1=C\Nc1ccc(S(N)(=O)=O)cc1` (racemic), the IC50 in test [3] was found to be 3250 nM; in test [4], 16200 nM; in test [6], 2920 nM; in test [1], 10100 nM. Also, the Ki in test [3] was determined as 1380 nM; in test [4] it was 6190 nM; in test [6] it was 138 nM; in test [1], 472 nM.
With `CCOC1Oc2ccc(CC)cc2C(=O)/C1=C\Nc1ccc(S(N)(=O)=O)cc1` (racemic), in test [1], the IC50 amounted to 3730 nM and the inhibitory constant (Ki) was 178 nM.
For the compound `COC1Oc2c(Cl)cc(Cl)cc2C(=O)/C1=C\Nc1cccc(S(N)(=O)=O)c1` (racemic), the IC50 in test [3] is 8340 nM; in test [4], 3520 nM; in test [6], 970 nM; in test [1] it was 4810 nM. Moreover, the Ki is 3590 nM in test [3], 1490 nM in test [4], 46 nM in test [6] and 229 nM in test [1].
In test [1], `O=c1c(C2Nc3ccccc3S(=O)(=O)N2)coc2ccc(F)cc12` (racemic) displayed an IC50 of 2710 nM and a Ki of 129 nM.
`COC1Oc2c(Cl)cc(Cl)cc2C(=O)/C1=C\Nc1ccccc1S(N)(=O)=O` (racemic): the IC50 in test [3] came out at 9870 nM; in test [4], 5360 nM; in test [6], 880 nM; in test [1], 1840 nM. The Ki in test [3] is 4210 nM; in test [4], 2280 nM; in test [6], 42 nM; in test [1], 87 nM.
For the compound `CC(C)OC1Oc2ccccc2C(=O)/C1=C\Nc1ccc(S(N)(=O)=O)cc1` (racemic), the IC50 in test [3] was 527 nM; in test [4] it was 47100 nM; in test [6], 1170 nM; in test [1] it was 540 nM. Also, the Ki in test [3] was 220 nM; in test [4], 20100 nM; in test [6], 53 nM; in test [1], 26 nM.
With `CCOC1Oc2ccccc2C(=O)/C1=C\Nc1cccc(S(N)(=O)=O)c1` (racemic), in test [2], the inhibition was 30.1%.
On to `COC1Oc2ccc(F)cc2C(=O)/C1=C\Nc1ccc(S(N)(=O)=O)cc1` (racemic), for which the results for the half-inhibitory concentration (IC50) in test [3] and in test [4] were 68600 nM and 17600 nM, respectively. In addition, the results for the Ki in test [3] and in test [4] were 29100 nM and 7510 nM, respectively. The inhibition is 46.8% in test [5] and 46.4% in test [2].
As to `COC1Oc2ccc(C)cc2C(=O)/C1=C\Nc1cccc(S(N)(=O)=O)c1` (racemic), the IC50 in test [3] was determined as 6560 nM; in test [4], 110000 nM. In addition, the Ki amounted to 2770 nM in test [3] and 47200 nM in test [4]. Moreover, the values for the inhibition in test [5] and in test [2] were 44.5% and 47.5%, respectively.
As to `CCOC1Oc2ccc(Br)cc2C(=O)/C1=C\Nc1ccc(S(N)(=O)=O)cc1` (racemic), the inhibition in test [2] came to 29.7%.
`COC1Oc2ccccc2C(=O)/C1=C\Nc1cccc(S(N)(=O)=O)c1` (racemic): the values for the IC50 in test [3], in test [6] and in test [1] were 39800 nM, 380 nM and 2810 nM, respectively. Moreover, the Ki in test [3] was 16900 nM; in test [6] it was 18 nM; in test [1], 134 nM. This compound also came in with an inhibition in test [7] of 32.1%.
Consider `COC1Oc2ccc(C)cc2C(=O)/C1=C\Nc1ccc(S(N)(=O)=O)cc1` (racemic), for which the IC50 in test [3] was found to be 3130 nM; in test [4] it was 8170 nM. Moreover, the figures for the Ki in test [3] and in test [4] were 1340 nM and 3490 nM, respectively. Moreover, the inhibition turned out to be 47% in test [5] and 42.9% in test [2].
On to `COC1Oc2ccc(Cl)cc2C(=O)/C1=C\Nc1cccc(S(N)(=O)=O)c1` (racemic), for which the figures for the IC50 in test [3], in test [6] and in test [1] were 31900 nM, 560 nM and 2380 nM, respectively. The Ki was 13600 nM in test [3], 27 nM in test [6] and 113 nM in test [1]. In test [7], the inhibition was 34.2%.
Consider `CCCCOC1Oc2ccccc2C(=O)/C1=C\Nc1ccc(S(N)(=O)=O)cc1` (racemic), for which the values for the IC50 in test [3], in test [4] and in test [6] were 48300 nM, 4570 nM and 1320 nM, respectively. For the same compound, the figures for the Ki in test [3], in test [4] and in test [6] were 20600 nM, 1950 nM and 63 nM, respectively. In test [2], the inhibition was 6.66%.
For `CCOC1Oc2ccc(Br)cc2C(=O)/C1=C\Nc1ccc(S(=O)(=O)Nc2ccccn2)cc1` (racemic), the inhibition in test [2] is 23.6%.
In test [1], `CCOC1Oc2ccc(F)cc2C(=O)/C1=C\Nc1ccc(S(N)(=O)=O)cc1` (racemic) displayed an IC50 of 2130 nM and a Ki of 101 nM.
In test [2], `O=c1c(C2Nc3ccccc3S(=O)(=O)N2)coc2ccc(Br)cc12` (racemic) yielded an inhibition of 20.3%.
Turning to `COC1Oc2ccc(F)cc2C(=O)/C1=C\Nc1ccccc1S(N)(=O)=O` (racemic), the IC50 in test [3] stood at 10200 nM; in test [4], 17100 nM. Besides, the Ki was 4260 nM in test [3] and 7290 nM in test [4]. For the same compound, the results for the inhibition in test [5] and in test [2] were 48.2% and 45.4%, respectively.
The compound `CCOC1Oc2ccccc2C(=O)/C1=C\Nc1ccc(S(=O)(=O)Nc2nnc(C)s2)cc1` (racemic) came in with an inhibition in test [2] of 48%.
Regarding `CCOC1Oc2ccc(Br)cc2C(=O)/C1=C\Nc1cccc(S(N)(=O)=O)c1` (racemic), in test [1], the IC50 stood at 6130 nM and the Ki was 292 nM.
Regarding `CCCCOC1Oc2ccccc2C(=O)/C1=C\Nc1cccc(S(N)(=O)=O)c1` (racemic), the 50% inhibitory concentration (IC50) in test [3] turned out to be 2290 nM; in test [4], 77800 nM; in test [6], 377 nM; in test [1] it was 3610 nM. Further, the Ki in test [3] turned out to be 978 nM; in test [4] it was 33200 nM; in test [6] it was 18 nM; in test [1], 172 nM.
On to `O=c1c(C2Nc3ccccc3S(=O)(=O)N2)coc2ccccc12` (racemic), for which, in test [1], the IC50 was 3810 nM and the Ki came to 181 nM.
`CCOC1Oc2c(Br)cc(Br)cc2C(=O)/C1=C\Nc1ccccc1S(N)(=O)=O` (racemic): in test [1], the IC50 turned out to be 40100 nM and the Ki is 1910 nM.
In test [2], `CCOC1Oc2ccccc2C(=O)/C1=C\Nc1ccc(S(=O)(=O)Nc2cc(OC)nc(OC)n2)cc1` (racemic) showed an inhibition of 28.2%.
For `CCOC1Oc2ccc(F)cc2C(=O)/C1=C\Nc1cccc(S(N)(=O)=O)c1` (racemic), in test [1], the IC50 was 990 nM and the Ki is 47 nM.
As for `CCOC1Oc2ccccc2C(=O)/C1=C\Nc1ccc(S(=O)(=O)Nc2ccccn2)cc1` (racemic), in test [1], half-maximal inhibition (IC50) was put at 15200 nM and the Ki amounted to 712 nM.
Consider `COC1Oc2ccccc2C(=O)/C1=C\Nc1ccccc1S(N)(=O)=O` (racemic), for which the IC50 in test [3] was 7810 nM; in test [4], 715000 nM; in test [6] it was 1910 nM; in test [1], 2390 nM. For the same compound, the Ki in test [3] stood at 3340 nM; in test [4], 305000 nM; in test [6], 91 nM; in test [1], 114 nM.
`CCOC1Oc2ccc(CC)cc2C(=O)/C1=C\Nc1cccc(S(N)(=O)=O)c1` (racemic): the inhibition in test [2] turned out to be 40.5%.
